Where a name gives a salt, the structure may show the parent alone.
Test system: PAM 212 keratinocytes
Assay: Photo-induced growth inhibition assay against PAM 212 keratinocytes (UVA activated)
Assay type: cell-based
Details: 1.28 J/cm^2 UVA (320-400 nm), cells counted after 4-5 days of growth, read-out: IC50 (concentration at which photoactivated test compound inhibited growth by 50%)
Protocol: The photobiological activity was assayed using a keratinocyte cell line grown in a monolayer culture. In this assay, PAM 212 keratinocytes were grown in Dulbecco's Modified Eagle's medium supplemented with 10% newborn calf serum in a 5% carbon dioxide incubator. Cells were inoculated into 6-well Falcon plastic culture dishes at 25,000 cells per well. After 24 hours, the medium was charged to fresh growth medium supplemented with increasing concentrations of the test compounds or the control medium. Controls and test concentrations were analyzed in triplicate.
These plates were incubated in a 37° C. carbon dioxide incubator. After 30 minutes, culture plates were exposed to UVA light (UVA, 320-400 nm) emitted from a bank of four BLB fluorescence light tubes (F40 BL, Sylvania) placed approximately 10 cm above the cell culture plates. The incident light on the culture plates was 2.4 mW/cm^2 as measured with an International Light UV radiometer, Model IL442A). […]
After completion of the irradiation phase, the cell culture medium was drained, the cells were refed with fresh growth medium and then re-incubated with carbon dioxide incubator to allow for cell growth. […] The cells were detached from the plates with trypsin and counted in a Coulter Counter. For control cells or for cells treated with test compounds, cell growth was determined as a percentage of control.

Compound | IC50
8-[2-(N,N-dimethylamino)ethoxyl-psoralen hydrochloride salt [Formula I (R=H, R1=H, A-B=—CH═CH—)] | 0.012 µM
CN(C)CCOc1c2c(cc3ccc(=O)oc13)CCO2 [Formula I R=H, R1=H, A-B=—CH2—CH2—, 8-[2-(N,N-dimethylamino)ethoxy]-4′,5′-dihydropsoralen hydrochloride salt] | 13 µM
